# According to PubChem BioAssay AID248 (DTP/NCI, 2004):
# “And” between values parts separate entries of the source, which are not always exact repeats. Identical values can stand only once. Inconclusive results and toxic doses are left out.
# Test system: L1210 leukemia ip in BDF1 mice, survival T/C
# Experiment: NCI In Vivo Anticancer Drug Screen. Data for tumor model L1210 Leukemia (intraperitoneal) in B6D2F1 (BDF1) mice
# Conditions: endpoint: mean survival time, higher = longer survival
# In short: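 Antitumor effect is assessed in tumor-bearing animals. Survival in the compound arm is compared with a vehicle-dosed control arm and expressed as their quotient.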
# [1] = dose: 100.0 mg/kg/injection, schedule: Q01DX009 (ip), vehicle: Klucel (hydroxypropylcellulose) (HPC)
# [2] = dose: 100.0 mg/kg/injection, schedule: Q04DX003 (ip), vehicle: Klucel (hydroxypropylcellulose) (HPC)
# [3] = dose: 200.0 mg/kg/injection, schedule: Q01DX009 (ip), vehicle: Klucel (hydroxypropylcellulose) (HPC)
# [4] = dose: 200.0 mg/kg/injection, schedule: Q04DX003 (ip), vehicle: Klucel (hydroxypropylcellulose) (HPC)
# [5] = dose: 400.0 mg/kg/injection, schedule: Q01DX009 (ip), vehicle: Klucel (hydroxypropylcellulose) (HPC)
# [6] = dose: 400.0 mg/kg/injection, schedule: Q04DX003 (ip), vehicle: Klucel (hydroxypropylcellulose) (HPC)
# [7] = dose: 100.0 mg/kg/injection, schedule: Q04DX003 (ip), vehicle: saline
# [8] = dose: 200.0 mg/kg/injection, schedule: Q04DX003 (ip), vehicle: saline
# [9] = dose: 400.0 mg/kg/injection, schedule: Q04DX003 (ip), vehicle: saline
# [10] = dose: 100.0 mg/kg/injection, schedule: Q01DX001 (ip), vehicle: saline with Tween-80
# [11] = dose: 200.0 mg/kg/injection, schedule: Q01DX001 (ip), vehicle: saline with Tween-80
# [12] = dose: 400.0 mg/kg/injection, schedule: Q01DX001 (ip), vehicle: saline with Tween-80
# [13] = dose: 100.0 mg/kg/injection, schedule: Q01DX009 (ip), vehicle: saline with Tween-80
# [14] = dose: 100.0 mg/kg/injection, schedule: Q04DX003 (ip), vehicle: saline with Tween-80
# [15] = dose: 200.0 mg/kg/injection, schedule: Q01DX009 (ip), vehicle: saline with Tween-80
# [16] = dose: 200.0 mg/kg/injection, schedule: Q04DX003 (ip), vehicle: saline with Tween-80
# [17] = dose: 400.0 mg/kg/injection, schedule: Q01DX009 (ip), vehicle: saline with Tween-80
# [18] = dose: 400.0 mg/kg/injection, schedule: Q04DX003 (ip), vehicle: saline with Tween-80
# [19] = dose: 100.0 mg/kg/injection, schedule: Q01DX001 (ip), vehicle: saline
# [20] = dose: 200.0 mg/kg/injection, schedule: Q01DX001 (ip), vehicle: saline
# [21] = dose: 400.0 mg/kg/injection, schedule: Q01DX001 (ip), vehicle: saline
compound,measurement,setting,value
COC(=O)C(NC(C)=O)C(=O)OC,T/C,[1],98 % of control
same,T/C,[2],90 % of control
same,T/C,[3],104 % of control
same,T/C,[4],98 % of control
same,T/C,[5],96 % of control
same,T/C,[6],106 % of control
CN(C)c1ccc(C=C(C#N)C#N)cc1,T/C,[1],100 % of control
same,T/C,[2],96 % of control and 98 % of control
same,T/C,[3],105 % of control
same,T/C,[4],97 % of control and 102 % of control
same,T/C,[5],94 % of control
same,T/C,[6],93 % of control and 92 % of control
COc1ccc(C(=C(CC(=O)O)C(=O)OC(C)(C)C)c2ccc(OC)c(OC)c2)cc1OC,T/C,"dose: 100.0 mg/kg/injection, schedule: Q01DX001 (ip), vehicle: carboxymethylcellulose (CMC)",96 % of control
same,T/C,"dose: 100.0 mg/kg/injection, schedule: Q01DX009 (ip), vehicle: carboxymethylcellulose (CMC)",91 % of control
same,T/C,"dose: 200.0 mg/kg/injection, schedule: Q01DX001 (ip), vehicle: carboxymethylcellulose (CMC)",97 % of control
same,T/C,"dose: 200.0 mg/kg/injection, schedule: Q01DX009 (ip), vehicle: carboxymethylcellulose (CMC)",95 % of control
same,T/C,"dose: 400.0 mg/kg/injection, schedule: Q01DX001 (ip), vehicle: carboxymethylcellulose (CMC)",94 % of control
same,T/C,"dose: 400.0 mg/kg/injection, schedule: Q01DX009 (ip), vehicle: carboxymethylcellulose (CMC)",91 % of control
same,T/C,"dose: 600.0 mg/kg/injection, schedule: Q01DX009 (ip), vehicle: carboxymethylcellulose (CMC)",91 % of control
COc1ccc2c(c1C)CCC1(C(=O)O)CC(C)C(O)CC21 (stereo not drawn),T/C,"dose: 100.0 mg/kg/injection, schedule: Q01DX009 (ip), vehicle: saline sonified",98 % of control
same,T/C,"dose: 200.0 mg/kg/injection, schedule: Q01DX009 (ip), vehicle: saline sonified",96 % of control
same,T/C,"dose: 400.0 mg/kg/injection, schedule: Q01DX009 (ip), vehicle: saline sonified",96 % of control
C=CC(C)(C)CCCC,T/C,[7],104 % of control
same,T/C,[8],101 % of control
same,T/C,[9],110 % of control
CCCP(=O)(CCC)C1CCCCC1,T/C,[10],99 % of control
same,T/C,[11],98 % of control
same,T/C,[12],86 % of control
COC(=O)c1ccccc1NC(=O)Nc1cc(Cl)ccc1C,T/C,[10],87 % of control
same,T/C,[13],91 % of control and 92 % of control
same,T/C,"dose: 100.0 mg/kg/injection, schedule: Q04DX002 (ip), vehicle: saline with Tween-80",95 % of control and 88 % of control
same,T/C,[14],101 % of control
same,T/C,[11],90 % of control
same,T/C,[15],93 % of control and 94 % of control
same,T/C,"dose: 200.0 mg/kg/injection, schedule: Q04DX002 (ip), vehicle: saline with Tween-80",88 % of control and 91 % of control
same,T/C,[16],92 % of control
same,T/C,[12],88 % of control
same,T/C,[17],94 % of control and 101 % of control
same,T/C,"dose: 400.0 mg/kg/injection, schedule: Q04DX002 (ip), vehicle: saline with Tween-80",93 % of control and 91 % of control
same,T/C,[18],90 % of control
COc1ccc(OC)c2c(C)cc(=O)[nH]c12,T/C,[19],97 % of control
same,T/C,[20],98 % of control
Cn1cccc(C#N)c1=O (tested in a mixture with another compound),T/C,[19],103 % of control and 113 % of control
same,T/C,"dose: 100.0 mg/kg/injection, schedule: Q04DX002 (ip), vehicle: saline",97 % of control and 110 % of control
same,T/C,[7],97 % of control
same,T/C,[20],106 % of control and 108 % of control
same,T/C,"dose: 200.0 mg/kg/injection, schedule: Q04DX002 (ip), vehicle: saline",98 % of control and 113 % of control
same,T/C,[8],103 % of control and 106 % of control
same,T/C,[21],103 % of control and 105 % of control
same,T/C,"dose: 400.0 mg/kg/injection, schedule: Q04DX002 (ip), vehicle: saline",100 % of control and 92 % of control
same,T/C,[9],106 % of control and 91 % of control
Nc1ccc(C(=O)O)cc1[N+](=O)[O-],T/C,"dose: 100.0 mg/kg/injection, schedule: Q04DX002 (ip), vehicle: Klucel (hydroxypropylcellulose) (HPC)",95 % of control
same,T/C,"dose: 200.0 mg/kg/injection, schedule: Q04DX002 (ip), vehicle: Klucel (hydroxypropylcellulose) (HPC)",100 % of control
same,T/C,"dose: 400.0 mg/kg/injection, schedule: Q04DX002 (ip), vehicle: Klucel (hydroxypropylcellulose) (HPC)",95 % of control
c1ccc2c(c1)ccc1ccc(C3=NCCO3)cc12,T/C,"dose: 100.0 mg/kg/injection, schedule: Q01DX001 (ip), vehicle: Klucel (hydroxypropylcellulose) (HPC)",94 % of control
same,T/C,"dose: 200.0 mg/kg/injection, schedule: Q01DX001 (ip), vehicle: Klucel (hydroxypropylcellulose) (HPC)",100 % of control
same,T/C,"dose: 400.0 mg/kg/injection, schedule: Q01DX001 (ip), vehicle: Klucel (hydroxypropylcellulose) (HPC)",100 % of control
CCCOC(=O)CCl,T/C,[19],113 % of control
Nc1ccc2c(c1[N+](=O)[O-])C(=O)c1ccccc1C2=O,T/C,[19],92 % of control
same,T/C,[20],95 % of control
same,T/C,[21],97 % of control
COCCCN=C(N)c1ccc(NC(=O)c2ccc(C(=O)Nc3ccc(C(N)=NCCCOC)cc3)c(Cl)c2)cc1,T/C,"dose: 0.47 mg/kg/injection, schedule: Q01DX Z (ip), vehicle: saline",92 % of control
same,T/C,"dose: 0.94 mg/kg/injection, schedule: Q01DX Z (ip), vehicle: saline",91 % of control
same,T/C,"dose: 1.88 mg/kg/injection, schedule: Q01DX Z (ip), vehicle: saline",94 % of control
same,T/C,"dose: 3.75 mg/kg/injection, schedule: Q01DX Z (ip), vehicle: saline",111 % of control
same,T/C,"dose: 7.5 mg/kg/injection, schedule: Q01DX Z (ip), vehicle: saline",171 % of control
same,T/C,"dose: 7.5 mg/kg/injection, schedule: Q01DX Z (oral), vehicle: saline",103 % of control
same,T/C,"dose: 15.0 mg/kg/injection, schedule: Q01DX Z (ip), vehicle: saline",89 % of control
same,T/C,"dose: 15.0 mg/kg/injection, schedule: Q01DX Z (oral), vehicle: saline",111 % of control
same,T/C,"dose: 30.0 mg/kg/injection, schedule: Q01DX Z (oral), vehicle: saline",94 % of control
same,T/C,"dose: 60.0 mg/kg/injection, schedule: Q01DX Z (oral), vehicle: saline",102 % of control
Cc1c2c(cc3c1[nH]c1ccccc13)C(c1ccc(Cl)cc1)=NCC2,T/C,[13],87 % of control
same,T/C,[15],87 % of control
same,T/C,[17],88 % of control
CN1CCN(C2CCCCc3ccccc32)CC1 (stereo not drawn),T/C,[14],95 % of control
O=C(Nc1ccc(C2=NCCN2)cc1)c1ccc(C(=O)Nc2ccc(C3=NCCN3)cc2)c(O)c1,T/C,"dose: 15.0 mg/kg/injection, schedule: Q01DX Z (ip), vehicle: methylcellulose (MC)",96 % of control
same,T/C,"dose: 30.0 mg/kg/injection, schedule: Q01DX Z (ip), vehicle: methylcellulose (MC)",98 % of control
same,T/C,"dose: 60.0 mg/kg/injection, schedule: Q01DX Z (ip), vehicle: methylcellulose (MC)",93 % of control
same,T/C,"dose: 120.0 mg/kg/injection, schedule: Q01DX Z (ip), vehicle: methylcellulose (MC)",93 % of control
CC1(C)OC2COC3(COC(C)(C)O3)C(OS(C)(=O)=O)C2O1 (stereo not drawn),T/C,[14],92 % of control
same,T/C,[16],95 % of control
same,T/C,[18],95 % of control
C1CN(P(N2CCOCC2)N2CCOCC2)CCO1,T/C,"dose: 100.0 mg/kg/injection, schedule: Q01DX009 (ip), vehicle: saline",104 % of control
same,T/C,"dose: 200.0 mg/kg/injection, schedule: Q01DX009 (ip), vehicle: saline",98 % of control
same,T/C,"dose: 400.0 mg/kg/injection, schedule: Q01DX009 (ip), vehicle: saline",98 % of control
CCN(Cc1ccccc1)C(=O)Nc1cccc(Cl)c1,T/C,"dose: 100.0 mg/kg/injection, schedule: Q01DX009 (ip), vehicle: other",106 % of control
same,T/C,"dose: 200.0 mg/kg/injection, schedule: Q01DX009 (ip), vehicle: other",108 % of control
same,T/C,"dose: 400.0 mg/kg/injection, schedule: Q01DX009 (ip), vehicle: other",105 % of control
